Tested on: 922993-354-T-J3-PDC complex spheroid viability
Test: Anticancer human tumor 922993-354-T-J3-PDC patient-derived endometrial carcinoma cell line growth inhibition [POLQ]
Details: for IC50: curve of first compound; for viability, T/C: stronger effect = lower value
Procedure, shortened: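 Three-cell-type spheroids modelling solid tumor plus stroma served as the readout system; POL inhibitors were tested individually and in combination, concentration ranges set by clinical Cmax where known.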

[1] = second compound 0.0316 µM, first compound 0.0316 µM
[2] = second compound 0.0316 µM, first compound 0.1 µM
[3] = second compound 0.0316 µM, first compound 0.316 µM
[4] = second compound 0.0316 µM, first compound 1 µM
[5] = second compound 0.0316 µM, first compound 3.16 µM
[6] = second compound 0.0316 µM, first compound 10 µM
[7] = second compound 0.1 µM, first compound 0.0316 µM
[8] = second compound 0.1 µM, first compound 0.1 µM
[9] = second compound 0.1 µM, first compound 0.316 µM
[10] = second compound 0.1 µM, first compound 1 µM
[11] = second compound 0.1 µM, first compound 3.16 µM
[12] = second compound 0.1 µM, first compound 10 µM
[13] = second compound 0.316 µM, first compound 0.0316 µM
[14] = second compound 0.316 µM, first compound 0.1 µM
[15] = second compound 0.316 µM, first compound 0.316 µM
[16] = second compound 0.316 µM, first compound 1 µM
[17] = second compound 0.316 µM, first compound 3.16 µM
[18] = second compound 0.316 µM, first compound 10 µM
[19] = second compound 1 µM, first compound 0.0316 µM
[20] = second compound 1 µM, first compound 0.1 µM
[21] = second compound 1 µM, first compound 0.316 µM
[22] = second compound 1 µM, first compound 1 µM
[23] = second compound 1 µM, first compound 3.16 µM
[24] = second compound 1 µM, first compound 10 µM
[25] = second compound 3.16 µM, first compound 0.0316 µM
[26] = second compound 3.16 µM, first compound 0.1 µM
[27] = second compound 3.16 µM, first compound 0.316 µM
[28] = second compound 3.16 µM, first compound 1 µM
[29] = second compound 3.16 µM, first compound 3.16 µM
[30] = second compound 3.16 µM, first compound 10 µM
[31] = second compound 10 µM, first compound 0.0316 µM
[32] = second compound 10 µM, first compound 0.1 µM
[33] = second compound 10 µM, first compound 0.316 µM
[34] = second compound 10 µM, first compound 1 µM
[35] = second compound 10 µM, first compound 3.16 µM
[36] = second compound 10 µM, first compound 10 µM
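Note: spheroids exposed to the agents for one week.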
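Throughout, for viability, T/C: 100% = DMSO vehicle control wells.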

Compound: CC(=O)O[C@H]1C(=O)[C@@]2(C)[C@H]([C@H](OC(=O)c3ccccc3)[C@]3(O)C[C@H](OC(=O)[C@H](O)[C@@H](NC(=O)c4ccccc4)c4ccccc4)C(C)=C1C3(C)C)[C@]1(OC(C)=O)CO[C@@H]1C[C@@H]2O + Nc1ccc(C#CCN(C(=O)Cc2ncc(C(F)(F)F)cc2C(F)(F)F)c2ccc(F)cc2)nn1
- IC50 (second compound 0.0316 µM): > 3 µM
- IC50 (second compound 0.1 µM): > 3 µM
- IC50 (second compound 0.316 µM): > 3 µM
- IC50 (second compound 1 µM): > 3 µM
- IC50 (second compound 3.16 µM): > 3 µM
- IC50 (second compound 10 µM): > 3 µM
- viability, T/C (second compound 0.0316 µM, first compound 0.00949 µM): 105%
- viability, T/C (second compound 0.0316 µM, first compound 0.03 µM): 107%
- viability, T/C (second compound 0.0316 µM, first compound 0.0949 µM): 102%
- viability, T/C (second compound 0.0316 µM, first compound 0.3 µM): 105%
- viability, T/C (second compound 0.0316 µM, first compound 0.949 µM): 99%
- viability, T/C (second compound 0.0316 µM, first compound 3 µM): 73.4%
- viability, T/C (second compound 0.1 µM, first compound 0.00949 µM): 105%
- viability, T/C (second compound 0.1 µM, first compound 0.03 µM): 106%
- viability, T/C (second compound 0.1 µM, first compound 0.0949 µM): 106%
- viability, T/C (second compound 0.1 µM, first compound 0.3 µM): 106%
- viability, T/C (second compound 0.1 µM, first compound 0.949 µM): 99.9%
- viability, T/C (second compound 0.1 µM, first compound 3 µM): 72.4%
- viability, T/C (second compound 0.316 µM, first compound 0.00949 µM): 107%
- viability, T/C (second compound 0.316 µM, first compound 0.03 µM): 107%
- viability, T/C (second compound 0.316 µM, first compound 0.0949 µM): 104%
- viability, T/C (second compound 0.316 µM, first compound 0.3 µM): 103%
- viability, T/C (second compound 0.316 µM, first compound 0.949 µM): 96.6%
- viability, T/C (second compound 0.316 µM, first compound 3 µM): 78.1%
- viability, T/C (second compound 1 µM, first compound 0.00949 µM): 107%
- viability, T/C (second compound 1 µM, first compound 0.03 µM): 100%
- viability, T/C (second compound 1 µM, first compound 0.0949 µM): 104%
- viability, T/C (second compound 1 µM, first compound 0.3 µM): 107%
- viability, T/C (second compound 1 µM, first compound 0.949 µM): 91.7%
- viability, T/C (second compound 1 µM, first compound 3 µM): 71.4%
- viability, T/C (second compound 3.16 µM, first compound 0.00949 µM): 101%
- viability, T/C (second compound 3.16 µM, first compound 0.03 µM): 105%
- viability, T/C (second compound 3.16 µM, first compound 0.0949 µM): 98.3%
- viability, T/C (second compound 3.16 µM, first compound 0.3 µM): 101%
- viability, T/C (second compound 3.16 µM, first compound 0.949 µM): 83.7%
- viability, T/C (second compound 3.16 µM, first compound 3 µM): 69.8%
- viability, T/C (second compound 10 µM, first compound 0.00949 µM): 90.6%
- viability, T/C (second compound 10 µM, first compound 0.03 µM): 84.3%
- viability, T/C (second compound 10 µM, first compound 0.0949 µM): 69.5%
- viability, T/C (second compound 10 µM, first compound 0.3 µM): 69.8%
- viability, T/C (second compound 10 µM, first compound 0.949 µM): 60.8%
- viability, T/C (second compound 10 µM, first compound 3 µM): 54.8%

Compound: COc1cc(C2c3cc4c(cc3C(OC3OC5COC(C)OC5C(O)C3O)C3COC(=O)C23)OCO4)cc(OC)c1O (stereo unspecified) + Nc1ccc(C#CCN(C(=O)Cc2ncc(C(F)(F)F)cc2C(F)(F)F)c2ccc(F)cc2)nn1
- IC50 (second compound 0.0316 µM): > 10 µM
- IC50 (second compound 0.1 µM): > 10 µM
- IC50 (second compound 0.316 µM): > 10 µM
- IC50 (second compound 1 µM): > 10 µM
- IC50 (second compound 3.16 µM): > 10 µM
- IC50 (second compound 10 µM): 4.39 µM
- viability, T/C [1]: 108%
- viability, T/C [2]: 106%
- viability, T/C [3]: 101%
- viability, T/C [4]: 105%
- viability, T/C [5]: 90.9%
- viability, T/C [6]: 81%
- viability, T/C [7]: 103%
- viability, T/C [8]: 102%
- viability, T/C [9]: 104%
- viability, T/C [10]: 98.2%
- viability, T/C [11]: 97.4%
- viability, T/C [12]: 71.4%
- viability, T/C [13]: 101%
- viability, T/C [14]: 105%
- viability, T/C [15]: 100%
- viability, T/C [16]: 104%
- viability, T/C [17]: 94.2%
- viability, T/C [18]: 76%
- viability, T/C [19]: 105%
- viability, T/C [20]: 103%
- viability, T/C [21]: 103%
- viability, T/C [22]: 100%
- viability, T/C [23]: 96.1%
- viability, T/C [24]: 77%
- viability, T/C [25]: 103%
- viability, T/C [26]: 97.2%
- viability, T/C [27]: 98%
- viability, T/C [28]: 95.6%
- viability, T/C [29]: 88%
- viability, T/C [30]: 67.6%
- viability, T/C [31]: 100%
- viability, T/C [32]: 90.5%
- viability, T/C [33]: 91.2%
- viability, T/C [34]: 75.1%
- viability, T/C [35]: 62.2%
- viability, T/C [36]: 25.3%

Compound: O=c1[nH]cc(F)c(=O)[nH]1 + Nc1ccc(C#CCN(C(=O)Cc2ncc(C(F)(F)F)cc2C(F)(F)F)c2ccc(F)cc2)nn1
- IC50 (second compound 0.0316 µM): 5.83 µM
- IC50 (second compound 0.1 µM): 5.94 µM
- IC50 (second compound 0.316 µM): 5.66 µM
- IC50 (second compound 1 µM): 5.75 µM
- IC50 (second compound 3.16 µM): 5.48 µM
- IC50 (second compound 10 µM): 5.32 µM
- viability, T/C [1]: 103%
- viability, T/C [2]: 105%
- viability, T/C [3]: 105%
- viability, T/C [4]: 103%
- viability, T/C [5]: 79.9%
- viability, T/C [6]: 23.6%
- viability, T/C [7]: 106%
- viability, T/C [8]: 103%
- viability, T/C [9]: 104%
- viability, T/C [10]: 102%
- viability, T/C [11]: 80.7%
- viability, T/C [12]: 24.6%
- viability, T/C [13]: 104%
- viability, T/C [14]: 104%
- viability, T/C [15]: 104%
- viability, T/C [16]: 99.6%
- viability, T/C [17]: 76.8%
- viability, T/C [18]: 23.8%
- viability, T/C [19]: 103%
- viability, T/C [20]: 98.5%
- viability, T/C [21]: 103%
- viability, T/C [22]: 102%
- viability, T/C [23]: 82.4%
- viability, T/C [24]: 19.8%
- viability, T/C [25]: 99.8%
- viability, T/C [26]: 103%
- viability, T/C [27]: 100%
- viability, T/C [28]: 102%
- viability, T/C [29]: 75.7%
- viability, T/C [30]: 21.9%
- viability, T/C [31]: 98.6%
- viability, T/C [32]: 101%
- viability, T/C [33]: 100%
- viability, T/C [34]: 96.6%
- viability, T/C [35]: 77.4%
- viability, T/C [36]: 17.3%

Source: PubChem BioAssay AID1963830 (Molecular Pharmacology Branch, DTP, NCI, 2024)
